Source: PMC3144920, “Peptide Substrates for Rho-Associated Kinase 2 (Rho-Kinase 2/ROCK2)” (PLoS ONE, 2011)
“Also recorded” adds a separate entry of the source. Where a SMILES comes first, the peptide text is derived from it.

Assays:
Assay type in all cases: biochemical
[1] = target: T1, ROCK2 (Homo sapiens, UniProt O75116); assay: Inhibition of ROCK2 phosphorylation of S6K substrate peptide by inhibitor peptides; settings: competitive; S6K peptide (KRRRLASLR) as substrate, 1.25 µg/mL ROCK2, 100 µM ATP, MOPS pH 7.2; Dixon plot and Lineweaver–Burk plot
T1 construct: purchased Carna Biosciences, Kobe, Japan
T1 sequence (O75116 1-553 limits assumed): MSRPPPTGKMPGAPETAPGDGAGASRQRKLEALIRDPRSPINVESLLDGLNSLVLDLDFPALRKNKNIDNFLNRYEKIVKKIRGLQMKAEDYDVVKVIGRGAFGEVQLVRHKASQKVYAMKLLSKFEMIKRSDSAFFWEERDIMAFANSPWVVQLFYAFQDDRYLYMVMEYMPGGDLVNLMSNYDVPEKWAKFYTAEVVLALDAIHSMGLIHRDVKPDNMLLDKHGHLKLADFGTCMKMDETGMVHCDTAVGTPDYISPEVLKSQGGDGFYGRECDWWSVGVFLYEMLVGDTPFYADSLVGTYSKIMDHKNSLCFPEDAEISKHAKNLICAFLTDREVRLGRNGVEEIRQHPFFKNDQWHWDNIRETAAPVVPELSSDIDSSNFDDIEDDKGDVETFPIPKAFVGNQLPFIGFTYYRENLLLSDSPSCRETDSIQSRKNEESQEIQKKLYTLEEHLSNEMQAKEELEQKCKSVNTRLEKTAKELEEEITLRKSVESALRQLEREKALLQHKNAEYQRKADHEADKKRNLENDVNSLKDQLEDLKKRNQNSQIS
Experimental: The phosphorylatable amino acid (threonine) of five peptide substrates (R4, R22, R133, R134, and R135) was replaced with alanine. […] Ki values were obtained from the Dixon plot and Lineweaver–Burk plot. Inhibitor peptides were added into 25 µL of buffer (5 mM MOPS at pH 7.2, 2.5 mM beta-glycerophosphate, 1 mM EGTA, 4 mM MgCl2, 0.05 mM DTT, and 100 µM ATP) containing S6K substrate peptide and 1.25 µg/mL ROCK2.

[2] = target: T1, ROCK2; assay: Kinetic analysis of peptide substrate phosphorylation by ROCK2 (Lineweaver–Burk plot)
Experimental: The kinase activity of recombinant ROCK2 (Carna Biosciences, Kobe, Japan), ERK1 (Upstate, Millipore, Temecula, CA, USA), PKA (Promega, Madison, WI, USA), and PKCα (Sigma–Aldrich, St. Louis, MO, USA) for the peptide substrates was determined by measuring ^32P transfer from [γ-^32P]ATP into substrate peptides according to manufacturer recommendations. Phosphorylation reactions by ROCK2 were carried out in 25 µL of buffer (5 mM 3-(N-morpholino)propanesulfonic acid (MOPS) at pH 7.2, 2.5 mM beta-glycerophosphate, 1 mM ethylene glycol tetra-acetic acid (EGTA), 4 mM MgCl2, 0.05 mM dithiothreitol (DTT), and 100 µM adenosine triphosphate (ATP)) containing peptides and 1.25 µg/ml ROCK2. For PKCα, phosphorylation reactions were carried out in 25 µL of buffer (20 mM HEPES at pH 7.4, 10 mM MgCl2, 1 mM CaCl2, 100 µM ATP, 40 µg/mL phosphatidylserine, and 20 µg/mL diacylglycerol) containing peptides and 0.5 µg/mL PKCα. Phosphorylation reactions by PKA were carried out in 25 µL of buffer (50 mM HEPES at pH 7.4, 1 mM CaCl2, 10 mM MgCl2, 100 µM ATP) containing peptides and 1.6 µg/mL PKA. For ERK1, phosphorylation reactions were carried out in 25 µL of buffer (25 mM Tris-HCl at pH 7.5, 20 µM EGTA, 15 mM magnesium acetate, and 100 µM ATP) containing peptides and 0.5 µg/mL ERK1. For each experimental condition, values for control reactions lacking substrate peptides were subtracted as blanks. The assay mixture was incubated for 10 min at 25°C, and the reaction terminated by the addition of 5 µL of 30% trichloroacetic acid (TCA). The reaction mixture (24 µL) was spotted onto P-81 phosphocellulose membranes. The membranes were washed thrice with 5% TCA, dried with acetone, and the radioactivity of each membrane determined by liquid scintillation counting. Kinetic analyses of enzyme activity were determined using the Lineweaver–Burk plot. […]

[3] = target: T2, PKCα (Homo sapiens, UniProt P17252); assay: Radiolabel assay using [γ-32P]ATP: phosphorylation of peptide substrates by PKCα; settings: Fig. 3, in words; for CPM for PKCα: 0.5 µg/mL PKCα, 100 µM ATP, HEPES pH 7.4, 10 min at 25°C
T2 construct: purchased Sigma–Aldrich, St. Louis, MO, USA
Experimental: (§1) The kinase activity of recombinant ROCK2 (Carna Biosciences, Kobe, Japan), ERK1 (Upstate, Millipore, Temecula, CA, USA), PKA (Promega, Madison, WI, USA), and PKCα (Sigma–Aldrich, St. Louis, MO, USA) for the peptide substrates was determined by measuring ^32P transfer from [γ-^32P]ATP into substrate peptides according to manufacturer recommendations. Phosphorylation reactions by ROCK2 were carried out in 25 µL of buffer (5 mM 3-(N-morpholino)propanesulfonic acid (MOPS) at pH 7.2, 2.5 mM beta-glycerophosphate, 1 mM ethylene glycol tetra-acetic acid (EGTA), 4 mM MgCl2, 0.05 mM dithiothreitol (DTT), and 100 µM adenosine triphosphate (ATP)) containing peptides and 1.25 µg/ml ROCK2. For PKCα, phosphorylation reactions were carried out in 25 µL of buffer (20 mM HEPES at pH 7.4, 10 mM MgCl2, 1 mM CaCl2, 100 µM ATP, 40 µg/mL phosphatidylserine, and 20 µg/mL diacylglycerol) containing peptides and 0.5 µg/mL PKCα. Phosphorylation reactions by PKA were carried out in 25 µL of buffer (50 mM HEPES at pH 7.4, 1 mM CaCl2, 10 mM MgCl2, 100 µM ATP) containing peptides and 1.6 µg/mL PKA. For ERK1, phosphorylation reactions were carried out in 25 µL of buffer (25 mM Tris-HCl at pH 7.5, 20 µM EGTA, 15 mM magnesium acetate, and 100 µM ATP) containing peptides and 0.5 µg/mL ERK1. For each experimental condition, values for control reactions lacking substrate peptides were subtracted as blanks. The assay mixture was incubated for 10 min at 25°C, and the reaction terminated by the addition of 5 µL of 30% trichloroacetic acid (TCA). The reaction mixture (24 µL) was spotted onto P-81 phosphocellulose membranes. The membranes were washed thrice with 5% TCA, dried with acetone, and the radioactivity of each membrane determined by liquid scintillation counting. Kinetic analyses of enzyme activity were determined using the Lineweaver–Burk plot.

[4] = target: T3, ERK1 (Homo sapiens, UniProt P27361); assay: Radiolabel assay using [γ-32P]ATP: phosphorylation of peptide substrates by ERK1; settings: 0.5 µg/mL ERK1, 100 µM ATP, Tris-HCl pH 7.5, 10 min at 25°C; Fig. 3, in words
T3 construct: purchased Upstate, Millipore, Temecula, CA, USA
T3 sequence (P27361 whole entry, species assumed): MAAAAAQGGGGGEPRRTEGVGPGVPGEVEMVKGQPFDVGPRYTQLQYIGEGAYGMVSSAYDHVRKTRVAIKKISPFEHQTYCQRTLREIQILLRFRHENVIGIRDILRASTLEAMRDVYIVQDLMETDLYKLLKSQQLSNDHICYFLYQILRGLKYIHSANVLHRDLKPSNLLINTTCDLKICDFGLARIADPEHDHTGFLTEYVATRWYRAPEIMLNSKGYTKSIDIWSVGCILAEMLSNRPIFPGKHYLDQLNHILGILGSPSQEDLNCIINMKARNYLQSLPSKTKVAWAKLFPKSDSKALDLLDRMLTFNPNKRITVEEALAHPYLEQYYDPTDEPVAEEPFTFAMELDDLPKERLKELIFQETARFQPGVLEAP
Experimental: as §1

[5] = target: T4, PKA (Bos taurus, UniProt P00517); assay: Radiolabel assay using [γ-32P]ATP: phosphorylation of peptide substrates by PKA; settings: 1.6 µg/mL PKA, 100 µM ATP, HEPES pH 7.4, 10 min at 25°C; Fig. 3, in words
T4 construct: purchased Promega, Madison, WI, USA
Experimental: as §1

Row | Ki [1] [µM] | Km [2] [µM] | Vmax [2] [pmol/min/mg] | CPM for PKCα [3] | Compound | CPM for ROCK2 compared with PKCα [3] | CPM for ROCK2 compared with ERK1 [4] | CPM for ROCK2 compared with PKA [5]
1 | – | 3.1 | 23.1 | – | KRRRLASLR [S6K, synthetic peptide S6K (…) used as a control for ROCK2, reference compound] | – | – | –
2 | – | 3.2 | 8.6 | – | KADRKKRYTVVGNPYWM [R135, peptide substrate for ROCK2 …, origin LIMK2] | much higher CPM for ROCK2 than that of PKCα; also recorded: higher CPM levels for ROCK2 than the other enzymes | higher CPM levels for ROCK2 than the other enzymes | higher CPM levels for ROCK2 than the other enzymes
3 | > 100 | – | – | – | CSCC[C@H](NC(=O)[C@H](Cc1c[nH]c2ccccc12)NC(=O)[C@H](Cc1ccc(O)cc1)NC(=O)[C@@H]1CCCN1C(=O)[C@H](CC(N)=O)NC(=O)CNC(=O)[C@@H](NC(=O)[C@@H](NC(=O)[C@H](C)NC(=O)[C@H](Cc1ccc(O)cc1)NC(=O)[C@H](CCCNC(=N)N)NC(=O)[C@H](CCCCN)NC(=O)[C@H](CCCCN)NC(=O)[C@H](CCCNC(=N)N)NC(=O)[C@H](CC(=O)O)NC(=O)[C@H](C)NC(=O)[C@@H](N)CCCCN)C(C)C)C(C)C)C(=O)O [R135 with alanine instead of threonine] (H-KADRKKRYAVVGNPYWM-OH; N-terminus and C-terminus assumed) | – | – | –
4 | – | 3.3 | 14.9 | high CPM | KSARKKRYTVVGNPYWM [R134, peptide substrate for ROCK2 …, origin LIMK2] | – | – | –
5 | 29.2 | – | – | – | CSCC[C@H](NC(=O)[C@H](Cc1c[nH]c2ccccc12)NC(=O)[C@H](Cc1ccc(O)cc1)NC(=O)[C@@H]1CCCN1C(=O)[C@H](CC(N)=O)NC(=O)CNC(=O)[C@@H](NC(=O)[C@@H](NC(=O)[C@H](C)NC(=O)[C@H](Cc1ccc(O)cc1)NC(=O)[C@H](CCCNC(=N)N)NC(=O)[C@H](CCCCN)NC(=O)[C@H](CCCCN)NC(=O)[C@H](CCCNC(=N)N)NC(=O)[C@H](C)NC(=O)[C@H](CO)NC(=O)[C@@H](N)CCCCN)C(C)C)C(C)C)C(=O)O [R134 with alanine instead of threonine] (H-KSARKKRYAVVGNPYWM-OH) | – | – | –

Further lines, the compound ahead of its results:

Row | Compound | Ki [1] [µM] | Km [2] [µM] | Vmax [2] [pmol/min/mg] | CPM for PKCα [3] | CPM for ROCK2 compared with PKCα [3] | CPM for ROCK2 compared with ERK1 [4] | CPM for ROCK2 compared with PKA [5]
6 | CSCC[C@H](NC(=O)[C@H](Cc1c[nH]c2ccccc12)NC(=O)[C@H](Cc1ccc(O)cc1)NC(=O)[C@@H]1CCCN1C(=O)[C@H](CC(N)=O)NC(=O)CNC(=O)[C@@H](NC(=O)[C@@H](NC(=O)[C@H](C)NC(=O)[C@H](Cc1ccc(O)cc1)NC(=O)[C@H](CCCNC(=N)N)NC(=O)[C@H](CCCCN)NC(=O)[C@H](CCCCN)NC(=O)[C@H](CCCNC(=N)N)NC(=O)[C@H](CC(=O)O)NC(=O)[C@H](CO)NC(=O)[C@@H](N)CCCCN)C(C)C)C(C)C)C(=O)O [R133 with alanine instead of threonine] (H-KSDRKKRYAVVGNPYWM-OH; N-terminus and C-terminus assumed) | > 100 | – | – | – | – | – | –
7 | KSDRKKRYTVVGNPYWM [R133, peptide substrate for ROCK2 …, origin LIMK2] | – | 3.6 | 10.0 | – | much higher CPM for ROCK2 than that of PKCα; also recorded: higher CPM levels for ROCK2 than the other enzymes | higher CPM levels for ROCK2 than the other enzymes | higher CPM levels for ROCK2 than the other enzymes
8 | RAKYKTLRQIR [R4, peptide substrate for ROCK2 …, origin ERM family (Ezrin/ Radixin/ Moesin)] | – | 1.7 | 14.2 | high CPM | – | – | –
9 | CSCC[C@H](NC(=O)[C@H](Cc1c[nH]c2ccccc12)NC(=O)[C@H](Cc1ccc(O)cc1)NC(=O)[C@@H]1CCCN1C(=O)[C@H](CC(N)=O)NC(=O)CNC(=O)[C@@H](NC(=O)[C@@H](NC(=O)[C@H](C)NC(=O)[C@H](Cc1ccc(O)cc1)NC(=O)[C@H](CCCNC(=N)N)NC(=O)[C@H](CCCCN)NC(=O)[C@H](CCCCN)NC(=O)[C@H](CCCNC(=N)N)NC(=O)[C@H](C)NC(=O)[C@@H]1CCCN1C(=O)[C@@H](N)CCCCN)C(C)C)C(C)C)C(=O)O [R22 with alanine instead of threonine] (H-KPARKKRYAVVGNPYWM-OH) | 11.6 | – | – | – | – | – | –
10 | KPARKKRYTVVGNPYWM [R22, peptide substrate for ROCK2 …, origin LIM-kinase 1 (LIMK1)] | – | 1.9 | 10.3 | – | much higher CPM for ROCK2 than that of PKCα; also recorded: higher CPM levels for ROCK2 than the other enzymes | higher CPM levels for ROCK2 than the other enzymes | higher CPM levels for ROCK2 than the other enzymes
11 | CC[C@H](C)[C@H](NC(=O)[C@H](CCC(N)=O)NC(=O)[C@H](CCCNC(=N)N)NC(=O)[C@H](CC(C)C)NC(=O)[C@H](C)NC(=O)[C@H](CCCCN)NC(=O)[C@H](Cc1ccc(O)cc1)NC(=O)[C@H](CCCCN)NC(=O)[C@H](C)NC(=O)[C@@H](N)CCCNC(=N)N)C(=O)N[C@@H](CCCNC(=N)N)C(=O)O [R4 with alanine instead of threonine] (H-RAKYKALRQIR-OH) | 86.6 | – | – | – | – | – | –
